The results in this text go back to publication PMC7782168, “Synthesis, telomerase inhibitory and anticancer activity of new 2-phenyl-4H-chromone derivatives containing 1,3,4-oxadiazole moiety” (Journal of Enzyme Inhibition and Medicinal Chemistry, 2020).

The target of one data set is T1, telomerase (Homo sapiens, UniProt O14746).
T1 construct: assayed for telomerase activity using MGC-803 cells extract; endogenous in cells; host or cells: MGC-803 cell extract
The data set can be described thus: Telomerase activity assay using MGC-803 cells extract. Particulars: mean ± SD. The format is biochemical.

T1 sequence (O14746 whole entry): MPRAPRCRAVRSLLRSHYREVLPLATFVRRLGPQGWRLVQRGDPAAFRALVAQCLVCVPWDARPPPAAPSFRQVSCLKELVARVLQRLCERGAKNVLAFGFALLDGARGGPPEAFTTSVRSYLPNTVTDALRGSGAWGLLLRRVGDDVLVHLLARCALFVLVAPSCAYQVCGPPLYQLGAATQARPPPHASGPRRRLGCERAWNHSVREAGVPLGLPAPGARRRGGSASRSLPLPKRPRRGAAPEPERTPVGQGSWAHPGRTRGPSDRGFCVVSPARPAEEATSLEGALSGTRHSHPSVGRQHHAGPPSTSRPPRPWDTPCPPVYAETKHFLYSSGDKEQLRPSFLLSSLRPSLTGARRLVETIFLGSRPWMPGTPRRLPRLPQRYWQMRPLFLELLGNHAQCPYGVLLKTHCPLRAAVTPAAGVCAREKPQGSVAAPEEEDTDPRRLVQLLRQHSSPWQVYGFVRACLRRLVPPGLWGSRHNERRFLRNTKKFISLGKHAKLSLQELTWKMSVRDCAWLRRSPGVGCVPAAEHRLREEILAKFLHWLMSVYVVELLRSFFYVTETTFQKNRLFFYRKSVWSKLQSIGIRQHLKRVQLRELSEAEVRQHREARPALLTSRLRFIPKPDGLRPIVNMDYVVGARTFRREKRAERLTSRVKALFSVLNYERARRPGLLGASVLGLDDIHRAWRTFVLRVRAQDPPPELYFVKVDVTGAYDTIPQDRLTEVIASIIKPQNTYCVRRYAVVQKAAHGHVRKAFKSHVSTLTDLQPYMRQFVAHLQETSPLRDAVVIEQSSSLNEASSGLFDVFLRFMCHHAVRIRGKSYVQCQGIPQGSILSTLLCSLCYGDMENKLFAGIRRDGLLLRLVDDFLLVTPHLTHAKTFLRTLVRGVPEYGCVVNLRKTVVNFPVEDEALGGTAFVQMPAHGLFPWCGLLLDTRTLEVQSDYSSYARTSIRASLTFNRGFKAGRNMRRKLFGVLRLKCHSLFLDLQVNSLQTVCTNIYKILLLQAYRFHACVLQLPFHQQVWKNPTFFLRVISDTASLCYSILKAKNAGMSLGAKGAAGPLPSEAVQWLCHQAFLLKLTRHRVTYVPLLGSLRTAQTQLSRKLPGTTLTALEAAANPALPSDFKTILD
T1 sequence (O60832 2-514 partner limits assumed): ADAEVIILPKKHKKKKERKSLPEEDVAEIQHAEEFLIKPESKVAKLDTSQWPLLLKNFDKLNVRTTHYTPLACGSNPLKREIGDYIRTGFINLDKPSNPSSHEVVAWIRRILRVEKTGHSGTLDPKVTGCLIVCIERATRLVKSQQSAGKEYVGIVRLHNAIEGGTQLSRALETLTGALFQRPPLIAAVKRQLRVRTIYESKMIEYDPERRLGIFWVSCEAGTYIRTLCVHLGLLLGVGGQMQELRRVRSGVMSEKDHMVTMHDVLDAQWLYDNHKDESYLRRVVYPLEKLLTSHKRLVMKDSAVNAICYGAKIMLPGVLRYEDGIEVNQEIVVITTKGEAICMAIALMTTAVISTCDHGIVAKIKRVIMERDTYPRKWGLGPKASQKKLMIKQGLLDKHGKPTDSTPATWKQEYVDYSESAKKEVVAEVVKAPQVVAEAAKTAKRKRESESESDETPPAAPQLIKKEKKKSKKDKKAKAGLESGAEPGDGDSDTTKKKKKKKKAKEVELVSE
T1 sequence (Q9NPE3 whole entry partner): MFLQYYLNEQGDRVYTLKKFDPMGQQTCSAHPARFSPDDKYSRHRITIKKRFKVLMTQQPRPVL
T1 sequence (Q9NX24 whole entry partner): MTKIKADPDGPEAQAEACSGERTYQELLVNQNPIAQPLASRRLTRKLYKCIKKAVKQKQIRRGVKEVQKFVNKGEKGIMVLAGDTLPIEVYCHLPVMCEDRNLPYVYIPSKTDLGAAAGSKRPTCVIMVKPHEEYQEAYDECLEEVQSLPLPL
T1 sequence (Q9NY12 whole entry partner): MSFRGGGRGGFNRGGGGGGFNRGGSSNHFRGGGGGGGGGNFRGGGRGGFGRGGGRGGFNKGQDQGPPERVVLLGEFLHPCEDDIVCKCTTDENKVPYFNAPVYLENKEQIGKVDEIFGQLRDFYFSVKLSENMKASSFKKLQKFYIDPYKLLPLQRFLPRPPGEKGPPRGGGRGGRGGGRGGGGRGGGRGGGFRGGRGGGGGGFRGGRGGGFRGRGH

`COc1cc(OC)c2c(=O)c(OCC(=O)Nc3nnc(-c4ccccc4F)o3)c(-c3cc(OC)c(OC)c(OC)c3)oc2c1` [A4, 2–(5,7-dimethoxy-4-oxo-2–(3,4,5-trimethoxyphenyl)-4H-chromen-3-yloxy)-N-(5–(2-fluorophenyl)-1,3,4-oxadiazol-2-yl)acetamide] gave a melting point of 213 to 215 °C. This compound also showed an IC50 against telomerase of 12.1 ± 2.01 µM.

Consider `COc1cc(OC)c2c(=O)c(OCC(=O)Nc3nnc(-c4cccc(Br)c4)o3)c(-c3ccc(OC)c(OC)c3)oc2c1` [B9, N-(5–(3-bromophenyl)-1,3,4-oxadiazol-2-yl)-2–(2-(3,4-dimethoxyphenyl)-5,7-dimethoxy-4-oxo-4H-chromen-3-yloxy)acetamide], for which the melting point lay within 204 to 206 °C. The same compound registered an IC50 on telomerase of 2.9 ± 0.45 µM.

In the case of `COc1cc(OC)c2c(=O)c(OCC(=O)Nc3nnc(-c4ccco4)o3)c(-c3cc(OC)c(OC)c(OC)c3)oc2c1` [A31, 2–(5,7-dimethoxy-4-oxo-2–(3,4,5-trimethoxyphenyl)-4H-chromen-3-yloxy)-N-(5-(furan-2-yl)-1,3,4-oxadiazol-2-yl)acetamide], the melting point was 240 to 242 °C. At telomerase, this compound showed an IC50 of 2.75 ± 0.19 µM.

Take `COc1cc(OC)c2c(=O)c(OCC(=O)Nc3nnc(-c4cccc(C(F)(F)F)c4)o3)c(-c3ccc(OC)c(OC)c3)oc2c1` [B17, 2–(2-(3,4-dimethoxyphenyl)-5,7-dimethoxy-4-oxo-4H-chromen-3-yloxy)-N-(5–(3-(trifluoromethyl)phenyl)-1,3,4-oxadiazol-2-yl)acetamide]: the melting point fell in the range of 195 to 197 °C. On telomerase, the IC50 is 27.6 ± 3.11 µM.

`COc1cc(OC)c2c(=O)c(OCC(=O)Nc3nnc(-c4ccc(F)c(Cl)c4)o3)c(-c3cc(OC)c(OC)c(OC)c3)oc2c1` [A24, N-(5–(3-chloro-4-fluorophenyl)-1,3,4-oxadiazol-2-yl)-2–(5,7-dimethoxy-4-oxo-2–(3,4,5-trimethoxyphenyl)-4H-chromen-3-yloxy)acetamide] gave a melting point of 228 to 230 °C. Further, on telomerase, the IC50 came to 4.01 ± 0.47 µM.

`COc1cc(OC)c2c(=O)c(OCC(=O)Nc3nnc(-c4cccc5ccccc45)o3)c(-c3ccc(OC)c(OC)c3)oc2c1` [B28, 2–(2-(3,4-dimethoxyphenyl)-5,7-dimethoxy-4-oxo-4H-chromen-3-yloxy)-N-(5-(naphthalen-1-yl)-1,3,4-oxadiazol-2-yl)acetamide] gave a melting point of 230 to 232 °C. For the same compound, 1.19 ± 0.18 µM corresponded to half-maximal inhibition against telomerase (IC50).

Consider `COc1cc(OC)c2c(=O)c(OCC(=O)Nc3nnc(-c4ccc(F)c(Cl)c4)o3)c(-c3ccc(OC)c(OC)c3)oc2c1` [B24, N-(5–(3-chloro-4-fluorophenyl)-1,3,4-oxadiazol-2-yl)-2–(2-(3,4-dimethoxyphenyl)-5,7-dimethoxy-4-oxo-4H-chromen-3-yloxy)acetamide], for which the melting point is 232 to 234 °C. For the same compound, the IC50 against telomerase turned out to be 4.17 ± 0.7 µM.

For the compound `COc1cc(OC)c2c(=O)c(OCC(=O)Nc3nnc(-c4cccc([N+](=O)[O-])c4)o3)c(-c3ccc(OC)c(OC)c3)oc2c1` [B14, 2–(2-(3,4-dimethoxyphenyl)-5,7-dimethoxy-4-oxo-4H-chromen-3-yloxy)-N-(5–(3-nitrophenyl)-1,3,4-oxadiazol-2-yl)acetamide], the melting point lay within 235 to 237 °C. At telomerase, this compound came in with an IC50 of 8.29 ± 1.33 µM.

Consider `COc1cc(OC)c2c(=O)c(OCC(=O)Nc3nnc(-c4ccc(C)cc4)o3)c(-c3ccc(OC)c(OC)c3)oc2c1` [B11, 2–(2-(3,4-dimethoxyphenyl)-5,7-dimethoxy-4-oxo-4H-chromen-3-yloxy)-N-(5-p-tolyl-1,3,4-oxadiazol-2-yl)acetamide], for which the melting point fell in the range of 239 to 241 °C. At telomerase, this compound displayed an IC50 of 5.65 ± 1.77 µM.

As for `COc1cccc(-c2nnc(NC(=O)COc3c(-c4ccc(OC)c(OC)c4)oc4cc(OC)cc(OC)c4c3=O)o2)c1` [B23, 2–(2-(3,4-dimethoxyphenyl)-5,7-dimethoxy-4-oxo-4H-chromen-3-yloxy)-N-(5–(3-methoxyphenyl)-1,3,4-oxadiazol-2-yl)acetamide], the melting point was in the range of 205 to 207 °C. The compound further displayed an IC50 on telomerase of 2.44 ± 0.42 µM.

`COc1cccc(-c2nnc(NC(=O)COc3c(-c4cc(OC)c(OC)c(OC)c4)oc4cc(OC)cc(OC)c4c3=O)o2)c1` [A23, 2–(5,7-dimethoxy-4-oxo-2–(3,4,5-trimethoxyphenyl)-4H-chromen-3-yloxy)-N-(5–(3-methoxyphenyl)-1,3,4-oxadiazol-2-yl)acetamide] returned a melting point of 208 to 210 °C. On telomerase, this compound showed an IC50 of 1.9 ± 0.42 µM.

Compound `COc1cc(OC)c2c(=O)c(OCC(=O)Nc3nnc(-c4ccccc4C(F)(F)F)o3)c(-c3ccc(OC)c(OC)c3)oc2c1` [B18, 2–(2-(3,4-dimethoxyphenyl)-5,7-dimethoxy-4-oxo-4H-chromen-3-yloxy)-N-(5–(2-(trifluoromethyl)phenyl)-1,3,4-oxadiazol-2-yl)acetamide] showed a melting point of 225 to 227 °C. At telomerase, this compound gave an IC50 of 2.79 ± 0.55 µM.

On to `COc1cc(OC)c2c(=O)c(OCC(=O)Nc3nnc(-c4cccc(Cl)c4)o3)c(-c3cc(OC)c(OC)c(OC)c3)oc2c1` [A6, N-(5–(3-chlorophenyl)-1,3,4-oxadiazol-2-yl)-2–(5,7-dimethoxy-4-oxo-2–(3,4,5-trimethoxyphenyl)-4H-chromen-3-yloxy)acetamide], for which the melting point is 206 to 208 °C. Moreover, the IC50 against telomerase is 7.35 ± 1.01 µM.

With `COc1cc(OC)c2c(=O)c(OCC(=O)Nc3nnc(-c4ccccc4Cl)o3)c(-c3ccc(OC)c(OC)c3)oc2c1` [B7, N-(5–(2-chlorophenyl)-1,3,4-oxadiazol-2-yl)-2–(2-(3,4-dimethoxyphenyl)-5,7-dimethoxy-4-oxo-4H-chromen-3-yloxy)acetamide], the melting point was 221 to 223 °C. Half-maximal inhibition at telomerase (IC50) was put at 24.3 ± 2.7 µM.

Take `COc1cc(OC)c2c(=O)c(OCC(=O)Nc3nnc(-c4ccc(C(F)(F)F)cc4)o3)c(-c3ccc(OC)c(OC)c3)oc2c1` [B16, 2–(2-(3,4-dimethoxyphenyl)-5,7-dimethoxy-4-oxo-4H-chromen-3-yloxy)-N-(5–(4-(trifluoromethyl)phenyl)-1,3,4-oxadiazol-2-yl)acetamide]: the melting point was in the range of 210 to 212 °C. At telomerase, this compound showed an IC50 of 1.29 ± 0.2 µM.

The compound `COc1cc(OC)c2c(=O)c(OCC(=O)Nc3nnc(-c4ccccc4[N+](=O)[O-])o3)c(-c3ccc(OC)c(OC)c3)oc2c1` [B15, 2–(2-(3,4-dimethoxyphenyl)-5,7-dimethoxy-4-oxo-4H-chromen-3-yloxy)-N-(5–(2-nitrophenyl)-1,3,4-oxadiazol-2-yl)acetamide] displayed a melting point of 254 to 256 °C. At telomerase, this compound came in with an IC50 of 17.2 ± 2.98 µM.

`COc1cc(OC)c2c(=O)c(OCC(=O)Nc3nnc(-c4cccc(C)c4)o3)c(-c3cc(OC)c(OC)c(OC)c3)oc2c1` [A12, 2–(5,7-dimethoxy-4-oxo-2–(3,4,5-trimethoxyphenyl)-4H-chromen-3-yloxy)-N-(5-m-tolyl-1,3,4-oxadiazol-2-yl)acetamide] had a melting point of 197 to 199 °C. The compound also came in with an IC50 against telomerase of 15.3 ± 2.85 µM.

`COc1ccc(-c2nnc(NC(=O)COc3c(-c4ccc(OC)c(OC)c4)oc4cc(OC)cc(OC)c4c3=O)o2)cc1` [B22, 2–(2-(3,4-dimethoxyphenyl)-5,7-dimethoxy-4-oxo-4H-chromen-3-yloxy)-N-(5–(4-methoxyphenyl)-1,3,4-oxadiazol-2-yl)acetamide] gave a melting point of 206 to 208 °C. At telomerase, the midpoint of inhibition, the IC50, lay at 14.3 ± 1.33 µM.
